Measurements published in patent US12440484B2, “1,3,4-oxadiazole homophthalimide derivative compounds as histone deacetylase 6 inhibitor, and the pharmaceutical composition comprising the same” (Chong Kun Dang Pharmaceutical Corp., priority 2019, dated 2025).

Assays:
HDAC1 = HDAC1 (Homo sapiens (Human), UniProt Q13547); experiment: HDAC enzyme activity inhibition (in vitro), HDAC1 Fluorimetric Drug Discovery Assay Kit; type: biochemical; details: samples at 100, 1000 and 10000 nM; 37° C. 60 minutes; fluorescence Ex 390, Em 460
HDAC6 human recombinant = HDAC6 human recombinant (Homo sapiens (Human), UniProt Q9UBN7); experiment: HDAC enzyme activity inhibition (in vitro), HDAC6 assay; type: biochemical; details: samples at 0.1, 1, 10, 100 and 1000 nM; 37° C. 60 minutes; fluorescence Ex 390, Em 460
Sequence of HDAC6 human recombinant (Q9UBN7 whole entry): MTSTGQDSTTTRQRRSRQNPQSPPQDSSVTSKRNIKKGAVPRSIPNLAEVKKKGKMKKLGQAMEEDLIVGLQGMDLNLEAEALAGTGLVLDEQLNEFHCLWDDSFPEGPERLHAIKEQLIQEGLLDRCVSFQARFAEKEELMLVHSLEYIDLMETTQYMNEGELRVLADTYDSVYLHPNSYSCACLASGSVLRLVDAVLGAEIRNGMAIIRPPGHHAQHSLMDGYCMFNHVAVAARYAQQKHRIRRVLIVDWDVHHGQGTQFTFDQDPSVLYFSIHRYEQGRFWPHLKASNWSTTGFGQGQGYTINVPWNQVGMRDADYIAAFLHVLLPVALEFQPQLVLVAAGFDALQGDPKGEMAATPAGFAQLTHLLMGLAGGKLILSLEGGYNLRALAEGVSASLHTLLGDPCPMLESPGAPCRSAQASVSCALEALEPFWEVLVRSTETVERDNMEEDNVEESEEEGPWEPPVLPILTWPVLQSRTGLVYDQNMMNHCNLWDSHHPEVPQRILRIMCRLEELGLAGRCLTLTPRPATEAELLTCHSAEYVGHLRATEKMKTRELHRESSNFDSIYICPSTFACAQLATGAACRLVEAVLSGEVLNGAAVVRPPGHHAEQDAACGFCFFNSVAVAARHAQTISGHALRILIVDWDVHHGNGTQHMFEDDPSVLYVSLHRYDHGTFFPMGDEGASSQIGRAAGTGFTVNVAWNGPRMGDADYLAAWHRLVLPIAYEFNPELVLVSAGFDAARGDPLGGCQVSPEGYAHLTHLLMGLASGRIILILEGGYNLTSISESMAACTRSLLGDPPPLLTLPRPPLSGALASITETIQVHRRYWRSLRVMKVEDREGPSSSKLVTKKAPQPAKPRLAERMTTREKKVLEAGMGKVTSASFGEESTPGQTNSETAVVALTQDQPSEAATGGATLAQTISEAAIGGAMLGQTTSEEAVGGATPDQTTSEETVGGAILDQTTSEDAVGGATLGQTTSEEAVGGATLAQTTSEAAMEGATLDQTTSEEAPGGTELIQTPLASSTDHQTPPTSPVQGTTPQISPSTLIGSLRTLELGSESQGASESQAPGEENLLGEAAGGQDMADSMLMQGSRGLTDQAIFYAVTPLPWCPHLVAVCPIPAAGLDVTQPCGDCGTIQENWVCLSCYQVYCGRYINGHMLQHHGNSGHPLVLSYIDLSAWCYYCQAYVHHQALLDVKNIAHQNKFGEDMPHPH

Sequence of HDAC1 (Q13547 whole entry): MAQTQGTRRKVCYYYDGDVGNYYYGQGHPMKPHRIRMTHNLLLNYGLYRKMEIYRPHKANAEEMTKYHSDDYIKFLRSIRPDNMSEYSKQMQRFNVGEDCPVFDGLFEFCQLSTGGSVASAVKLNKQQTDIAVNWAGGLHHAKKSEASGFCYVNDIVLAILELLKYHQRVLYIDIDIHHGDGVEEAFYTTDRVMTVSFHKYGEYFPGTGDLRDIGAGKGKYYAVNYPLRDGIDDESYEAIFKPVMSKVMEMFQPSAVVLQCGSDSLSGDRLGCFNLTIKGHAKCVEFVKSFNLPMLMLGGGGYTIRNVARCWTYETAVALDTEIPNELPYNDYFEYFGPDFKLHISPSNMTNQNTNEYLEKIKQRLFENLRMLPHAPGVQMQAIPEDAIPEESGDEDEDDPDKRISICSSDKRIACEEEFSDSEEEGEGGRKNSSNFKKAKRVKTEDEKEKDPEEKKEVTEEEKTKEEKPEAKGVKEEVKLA

| IC50 (HDAC1) [nM] | IC50 (HDAC6 human recombinant) [nM] | SMILES |
| --- | --- | --- |
| > 10000 | 36 | CC1(C)C(=O)N(Cc2ccc(-c3nnc(C(F)F)o3)cn2)C(=O)c2cc(C3=CCSCC3)ccc21 [Compound 121, 2-((5-(5-(difluoromethyl)-1,3,4-oxadiazole-2-yl)pyridine-2-yl)methyl)-7-(3,6-dihydro-2H-thiopyran-4-yl)-4,4-dimethylisoquinoline-1,3(2H,4H)-dione] |
| > 10000 | 35 | CC1(C)C(=O)N(Cc2ccc(-c3nnc(C(F)F)o3)cn2)C(=O)c2ccc(C3CCN(C4COC4)CC3)cc21 [Compound 61, 2-((5-(5-(difluoromethyl)-1,3,4-oxadiazole-2-yl)pyridine-2-yl)methyl)-4,4-dimethyl-6-(1-(oxetan-3-yl)piperidine-4-yl)isoquinoline-1,3(2H,4H)-dione] |
| > 10000 | 24 | CC1(C)C(=O)N(Cc2ccc(-c3nnc(C(F)F)o3)cn2)C(=O)c2ccc(N3CCN(C(C)(C)C)CC3)cc21 [Compound 36, 6-(4-(tert-butyl)piperazine-1-yl)-2-((5-(5-(difluoromethyl)-1,3,4-oxadiazole-2-yl)pyridine-2-yl)methyl)-4,4-dimethylisoquinoline-1,3(2H,4H)-dione] |
| > 10000 | 22 | CC1(C)C(=O)N(Cc2ccc(-c3nnc(C(F)F)o3)cn2)C(=O)c2ccc(N3CC4(COC4)C3)cc21 [Compound 40, 2-((5-(5-(difluoromethyl)-1,3,4-oxadiazole-2-yl)pyridine-2-yl)methyl)-4,4-dimethyl-6-(2-oxa-6-azaspiro[3.3]heptane-6-yl)isoquinoline-1,3(2H,4H)-dione] |
| > 10000 | 77 | Cc1ccc(-c2ccc3c(c2)C(=O)N(Cc2ccc(-c4nnc(C(F)F)o4)cn2)C(=O)C3(C)C)o1 [Compound 114, 2-((5-(5-(difluoromethyl)-1,3,4-oxadiazole-2-yl)pyridine-2-yl)methyl)-4,4-dimethyl-7-(5-methylfuran-2-yl)isoquinoline-1,3(2H,4H)-dione] |
| > 10000 | 21 | CC(C)N1CCN(c2ccc3c(c2)C(=O)N(Cc2ccc(-c4nnc(C(F)F)o4)cn2)C(=O)C3(C)C)CC1 [Compound 119, 2-((5-(5-(difluoromethyl)-1,3,4-oxadiazole-2-yl)pyridine-2-yl)methyl)-7-(4-isopropylpiperazine-1-yl)-4,4-dimethylisoquinoline-1,3(2H,4H)-dione] |
| > 10000 | 69 | CC(C)CCN1CCN(c2ccc3c(c2)C(=O)N(Cc2ccc(-c4nnc(C(F)F)o4)cn2)C(=O)C3(C)C)CC1 [Compound 132, 2-((5-(5-(difluoromethyl)-1,3,4-oxadiazole-2-yl)pyridine-2-yl)methyl)-7-(4-isopentylpiperazine-1-yl)-4,4-dimethylisoquinoline-1,3(2H,4H)-dione] |
| > 10000 | 62 | CC(C)CN1CCN(c2ccc3c(c2)C(=O)N(Cc2ccc(-c4nnc(C(F)F)o4)cn2)C(=O)C3(C)C)CC1 [Compound 131, 2-((5-(5-(difluoromethyl)-1,3,4-oxadiazole-2-yl)pyridine-2-yl)methyl)-7-(4-isobutylpiperazine-1-yl)-4,4-dimethylisoquinoline-1,3(2H,4H)-dione] |
| > 10000 | 96 | CC(F)(F)CN1CCN(c2ccc3c(c2)C(C)(C)C(=O)N(Cc2ccc(-c4nnc(C(F)F)o4)cn2)C3=O)CC1 [Compound 138, 2-((5-(5-(difluoromethyl)-1,3,4-oxadiazole-2-yl)pyridine-2-yl)methyl)-6-(4-(2,2-difluoropropyl)piperazine-1-yl)-4,4-dimethylisoquinoline-1,3(2H,4H)-dione] |
| > 10000 | 20 | CCN1CCC(c2ccc3c(c2)C(=O)N(Cc2ccc(-c4nnc(C(F)F)o4)cn2)C(=O)C3(C)C)CC1 [Compound 68, 2-((5-(5-(difluoromethyl)-1,3,4-oxadiazole-2-yl)pyridine-2-yl)methyl)-7-(1-ethylpiperidine-4-yl)-4,4-dimethylisoquinoline-1,3(2H,4H)-dione] |
| > 10000 | 34 | CC1(C)C(=O)N(Cc2ccc(-c3nnc(C(F)F)o3)cn2)C(=O)c2ccc(N3CCN(CC(=O)N4CCCC4)CC3)cc21 [Compound 33, 2-((5-(5-(difluoromethyl)-1,3,4-oxadiazole-2-yl)pyridine-2-yl)methyl)-4,4-dimethyl-6-(4-(2-oxo-2-(pyrrolidine-1-yl)ethyl)piperazine-1-yl)isoquinoline-1,3(2H,4H)-dione] |
| > 10000 | 55 | CCC1(CC)C(=O)N(Cc2ccc(-c3nnc(C(F)F)o3)cn2)C(=O)c2ccc(N3CCN(C(C)=O)CC3)cc21 [Compound 136, 6-(4-acetylpiperazine-1-yl)-2-((5-(5-(difluoromethyl)-1,3,4-oxadiazole-2-yl)pyridine-2-yl)methyl)-4,4-diethylisoquinoline-1,3(2H,4H)-dione] |
| > 10000 | 11 | CC(=O)N1CCN(c2ccc3c(c2)C(C)(C)C(=O)N(Cc2ccc(-c4nnc(C(F)F)o4)cn2)C3=O)CC12CC2 [Compound 81, 6-(4-acetyl-4,7-diazaspiro[2.5]octane-7-yl)-2-((5-(5-(difluoromethyl)-1,3,4-oxadiazole-2-yl)pyridine-2-yl)methyl)-4,4-dimethylisoquinoline-1,3(2H,4H)-dione] |
| > 10000 | 21 | CCCN1CCC(c2ccc3c(c2)C(=O)N(Cc2ccc(-c4nnc(C(F)F)o4)cn2)C(=O)C3(C)C)CC1 [Compound 143, 2-((5-(5-(difluoromethyl)-1,3,4-oxadiazole-2-yl)pyridine-2-yl)methyl)-4,4-dimethyl-7-(1-propylpiperidine-4-yl) isoquinoline-1,3 (2H,4H)-dione] |
| > 10000 | 41 | CC1(C)C(=O)N(Cc2ccc(-c3nnc(C(F)F)o3)cn2)C(=O)c2ccc(N3CC(F)(F)C3)cc21 [Compound 49, 6-(3,3-difluoroazetidine-1-yl)-2-((5-(5-(difluoromethyl)-1,3,4-oxadiazole-2-yl)pyridine-2-yl)methyl)-4,4-dimethylisoquinoline-1,3(2H,4H)-dione] |

The remaining lines, values behind:

| SMILES | IC50 (HDAC1) [nM] | IC50 (HDAC6 human recombinant) [nM] |
| --- | --- | --- |
| Cc1noc(C)c1-c1cccc2c1C(=O)N(Cc1ccc(-c3nnc(C(F)F)o3)cn1)C(=O)C2(C)C [Compound 96, 2-((5-(5-(difluoromethyl)-1,3,4-oxadiazole-2-yl)pyridine-2-yl)methyl)-8-(3,5-dimethylisooxazole-4-yl)-4,4-dimethylisoquinoline-1,3(2H,4H)-dione] | > 10000 | 88 |
| Cc1ccc(-c2cccc3c2C(=O)N(Cc2ccc(-c4nnc(C(F)F)o4)cn2)C(=O)C3(C)C)o1 [Compound 93, 2-((5-(5-(difluoromethyl)-1,3,4-oxadiazole-2-yl)pyridine-2-yl)methyl)-4,4-dimethyl-8-(5-methylfuran-2-yl)isoquinoline-1,3(2H,4H)-dione] | > 10000 | 143 |
| COc1ccc(-c2cccc3c2C(=O)N(Cc2ccc(-c4nnc(C(F)F)o4)cn2)C(=O)C3(C)C)cn1 [Compound 94, 2-((5-(5-(difluoromethyl)-1,3,4-oxadiazole-2-yl)pyridine-2-yl)methyl)-8-(6-methoxypyridine-3-yl)-4,4-dimethylisoquinoline-1,3(2H,4H)-dione] | > 10000 | 116 |
| COCCn1c(=O)c2ccccc2n(Cc2ccc(-c3nnc(C(F)F)o3)cn2)c1=O [Compound 76, 1-((5-(5-(difluoromethyl)-1,3,4-oxadiazole-2-yl)pyridine-2-yl)methyl)-3-(2-methoxyethyl)quinazoline-2,4(1H,3H)-dione] | > 10000 | 79 |
| CC1(C)C(=O)N(Cc2ccc(-c3nnc(C(F)F)o3)cn2)C(=O)c2c(-c3ccncc3)cccc21 [Compound 84, 2-((5-(5-(difluoromethyl)-1,3,4-oxadiazole-2-yl)pyridine-2-yl)methyl)-4,4-dimethyl-8-(pyridine-4-yl)isoquinoline-1,3(2H,4H)-dione] | > 10000 | 79 |
| CCN1CCC(c2ccc3c(c2)C(C)(C)C(=O)N(Cc2ccc(-c4nnc(C(F)F)o4)cn2)C3=O)CC1 [Compound 59, 2-((5-(5-(difluoromethyl)-1,3,4-oxadiazole-2-yl)pyridine-2-yl)methyl)-6-(1-ethylpiperidine-4-yl)-4,4-dimethylisoquinoline-1,3(2H,4H)-dione] | > 10000 | 56 |
| CC1(C)C(=O)N(Cc2ccc(-c3nnc(C(F)F)o3)cc2)C(=O)c2ccccc21 [Compound 6, 2-(4-(5-(difluoromethyl)-1,3,4-oxadiazole-2-yl)benzyl)-4,4-dimethylisoquinoline-1,3(2H,4H)-dione] | > 10000 | 647 |
| CC1(C)C(=O)N(Cc2ccc(-c3nnc(C(F)F)o3)cn2)C(=O)c2cc(-c3cccc4[nH]ccc34)ccc21 [Compound 115, 2-((5-(5-(difluoromethyl)-1,3,4-oxadiazole-2-yl)pyridine-2-yl)methyl)-7-(1H-indole-4-yl)-4,4-dimethylisoquinoline-1,3(2H,4H)-dione] | > 10000 | 59 |
| CCN1CC=C(c2ccc3c(c2)C(C)(C)C(=O)N(Cc2ncc(-c4nnc(C(F)F)o4)cn2)C3=O)CC1 [Compound 155, 2-((5-(5-(difluoromethyl)-1,3,4-oxadiazole-2-yl)pyrimidine-2-yl)methyl)-6-(1-ethyl-1,2,3,6-tetrahydropyridine-4-yl)-4,4-dimethylisoquinoline-1,3(2H,4H)-dione] | > 10000 | 185 |
| Cn1c(=O)n(Cc2ccc(-c3nnc(C(F)F)o3)cn2)c(=O)c2cc(-c3cccc(F)c3)ccc21 [Compound 90, 3-((5-(5-(difluoromethyl)-1,3,4-oxadiazole-2-yl)pyridine-2-yl)methyl)-6-(3-fluorophenyl)-1-methylquinazoline-2,4(1H,3H)-dione] | > 10000 | 41 |
| COc1ccc(Cn2c(=O)n(Cc3ccc(-c4nnc(C(F)F)o4)cn3)c(=O)c3cc(F)ccc32)cc1 [Compound 66, 3-((5-(5-(difluoromethyl)-1,3,4-oxadiazole-2-yl)pyridine-2-yl)methyl)-6-fluoro-1-(4-methoxybenzyl)quinazoline-2,4(1H,3H)-dione] | > 10000 | 216 |
